Data: patent publication US5672604A, “1-phenylmethyl benzimidazole piperazine derivative” (Fabrica Espanola de Productos Quimicos y Farmaceuticos …, priority 1993, dated 1997)
Where two headings read alike, the source gives them in different places.

Experiments:
5HT3 receptor = molecular target: T1, 5HT3 receptor (Cavia porcellus, UniProt O70212); assay: Inhibition of 2-methyl-serotonin induced contraction of guinea pig ileum
T1 construct: Guinea pig ileum fragments; from tissue; host or cells: guinea pig ileum fragments
T1 sequence (O70212 20-490): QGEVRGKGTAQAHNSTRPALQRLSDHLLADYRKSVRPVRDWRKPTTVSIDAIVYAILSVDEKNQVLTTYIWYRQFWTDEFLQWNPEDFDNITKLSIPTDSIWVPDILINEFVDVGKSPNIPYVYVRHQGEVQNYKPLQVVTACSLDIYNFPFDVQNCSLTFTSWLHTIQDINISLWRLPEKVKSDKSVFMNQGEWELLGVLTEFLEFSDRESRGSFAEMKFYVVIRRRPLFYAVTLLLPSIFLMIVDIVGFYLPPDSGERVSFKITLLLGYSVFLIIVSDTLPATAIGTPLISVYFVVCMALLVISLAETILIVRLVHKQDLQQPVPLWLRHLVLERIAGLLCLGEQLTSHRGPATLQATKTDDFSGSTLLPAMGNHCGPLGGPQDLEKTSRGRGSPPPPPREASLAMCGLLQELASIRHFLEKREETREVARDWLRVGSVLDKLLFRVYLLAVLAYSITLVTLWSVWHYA
Protocol: b) Guinea pig ileum fragments were submerged in K-H solution at 37° C. pH 7.4, oxygenated with carbogen (95% O2 and 5% CO2) and with an effective preload of 1-2 g. They remained in a stabilization period for 45-60 minutes. and the physiological solution was replaced every 15 minutes. After this time, contractions were induced every 15 minutes, adding 2-methyl-serotonin (final conc.: 10 μmol/l). […] The inhibition percentages and CI50 were subsequently calculated (Table I).

serotonin 5HT3 receptor = assay: Inhibition of serotonin-induced Bezold-Jarisch reflex in anaesthetised rat; assay type: in vivo, Wistar rats; conditions: i.v., 5 minutes before serotonin
Protocol: After the arterial pressure (A.P.) and cardiac frequency (C.F.) parameters were stabilised, bradycardia reflex was induced by i.v. injection (the different dose of the drug tested) of 80 μv/kg (1 ml/kg) of serotonin dissolved in sterile physiological serum. Ten minutes later and after taking CF and AP back to constant levels, the products claimed herein were injected i.v. and after a lapse of five minutes, i.v. injection of the serotonin creatinine sulphate complex was repeated, quantifying the inhibition of the Bezold-Jarisch reflex.

5HT3 = molecular target: T2, 5HT3 (Rattus norvegicus, UniProt P35563); assay: Bind 5HT3 cort-ento; assay type: binding; conditions: read-out: Bind 5HT3 cort-ento pki (converted)
T2 construct: cort-ento; from tissue; host or cells: entorhinal cortex ('cort-ento')
T2 sequence (P35563 24-483): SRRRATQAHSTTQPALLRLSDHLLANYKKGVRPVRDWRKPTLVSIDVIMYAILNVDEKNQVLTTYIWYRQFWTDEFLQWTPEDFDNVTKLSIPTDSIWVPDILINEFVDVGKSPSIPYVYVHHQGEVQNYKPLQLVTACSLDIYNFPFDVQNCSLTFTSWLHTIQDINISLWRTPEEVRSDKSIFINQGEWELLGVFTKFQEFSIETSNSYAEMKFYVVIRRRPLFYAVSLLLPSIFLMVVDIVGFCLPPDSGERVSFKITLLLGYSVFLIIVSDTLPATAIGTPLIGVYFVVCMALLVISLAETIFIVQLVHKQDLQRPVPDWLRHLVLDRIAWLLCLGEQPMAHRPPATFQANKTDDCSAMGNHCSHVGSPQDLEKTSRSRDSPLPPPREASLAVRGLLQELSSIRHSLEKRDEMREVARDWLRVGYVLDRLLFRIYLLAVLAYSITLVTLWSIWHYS

[1] = guinea pig ileum, contraction by 2-methyl-serotonin 10 μmol/l, incubation 15 minutes, read-out: 2-me-5HT g.p. ileum CI50

Row | SMILES | IC50 (5HT3 receptor; [1]) [µM] | also measured
1 | Cc1ccc2c(c1)nc(N1CCNCC1)n2Cc1ccccc1 [Product 1, 5-methyl-1-phenylmethyl-2-piperazinyl-1H-benzimidazole] | 0.0283 | –
2 | Clc1ccc2c(c1)nc(N1CCNCC1)n2Cc1ccccc1 [Product 2] | – | IC50 (5HT3 receptor): 0.0072 µM
3 | O=[N+]([O-])c1ccc2c(c1)nc(N1CCNCC1)n2Cc1ccccc1 [Product 3] | 0.0105 | B-J reflex rat-anaesth. DE50 (serotonin 5HT3 receptor): 7.4 μg/kg iv; Ki (5HT3): 0.0398 µM
4 | Fc1ccc2c(c1)nc(N1CCNCC1)n2Cc1ccccc1 [Product 4] | 0.00165 | –
5 | Oc1ccc2c(c1)nc(N1CCNCC1)n2Cc1ccccc1 [Product 5] | 0.116 | –
6 | Clc1cc2nc(N3CCNCC3)n(Cc3ccccc3)c2cc1Cl [Product 6] | 0.265 | –
